Source: patent publication US20240360178A1, “MACROCYCLIC IMMUNOMODULATORS” (Bristol-Myers Squibb Company, priority 2021, published 2024)
Like-named read-outs stand apart in the source and are kept apart here. Positions of bridges follow the written chain, without caps; N, C: chain ends. Non-standard residues stand in square brackets, D forms with d. Residues, ends and D or L forms follow the SMILES beside them. ξ: configuration not given here. *: point of attachment. Phe(4-COOH) = N[C@@H](Cc1ccc(C(=O)O)cc1)C(=O)O; Bip = N[C@@H](Cc1ccc(-c2ccccc2)cc1)C(=O)O; Phe(3-Me) = Cc1cccc(C[C@H](N)C(=O)O)c1; NMeY = CN[C@@H](Cc1ccc(O)cc1)C(=O)O; Val(3-OH) = CC(C)(O)[C@H](N)C(=O)O; NMeF = CN[C@@H](Cc1ccccc1)C(=O)O; 3Pal = N[C@@H](Cc1cccnc1)C(=O)O; 4Pal = N[C@@H](Cc1ccncc1)C(=O)O; Cha = N[C@@H](CC1CCCCC1)C(=O)O; Carboxymethyl = O=C(O)C*; NMeA = CN[C@@H](C)C(=O)O; Nle = CCCC[C@H](N)C(=O)O; Orn = NCCC[C@H](N)C(=O)O; Dab = NCC[C@H](N)C(=O)O; Abu = CC[C@H](N)C(=O)O; Dap = NC[C@H](N)C(=O)O; ξV = CC(C)C(N)C(=O)O; ξP = O=C(O)C1CCCN1; Sar = CNCC(=O)O

Target: T1, human PD-1 (Jurkat-PD-1 cells) / PE-labeled human PD-L1-Ig (Homo sapiens, UniProt Q15116)
T1 construct: expressed in transfected cells; host or cells: Jurkat cell line over-expressing human PD-1
T1 sequence (Q15116 25-288): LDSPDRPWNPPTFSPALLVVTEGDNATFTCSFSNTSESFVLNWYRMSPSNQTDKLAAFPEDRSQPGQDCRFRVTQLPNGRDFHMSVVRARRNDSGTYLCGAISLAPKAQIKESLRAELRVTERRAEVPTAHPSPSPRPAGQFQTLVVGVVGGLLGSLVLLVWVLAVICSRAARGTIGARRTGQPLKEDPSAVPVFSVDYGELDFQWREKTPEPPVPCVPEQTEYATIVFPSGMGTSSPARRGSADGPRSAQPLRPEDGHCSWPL
Test: Jurkat-PD-1 Cell Binding High-Content Screening Assay (CBA); Jurkat hPD1-PDL1 assay
Details: PE-labeled PD-L1-Ig 20 nM final, compound incubated 2 hours at 37° C.
In short: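 Binding of phycoerythrin-conjugated PD-L1-Ig (20 nM final) to PD-1-overexpressing Jurkat cells was read by high-content imaging. Cells in DMEM/10% FCS were exposed to compound for 2 hours at 37° C before labeled ligand was added.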

[1] = Jurkat cell line over-expressing human PD-1, read-out: Jurkat HPD1-PDL1 IC50

SMILES	IC50 [1] [nM]	IC50 (Jurkat HPD1-PDL1 IC50, Jurkat cell line over-expressing human PD-1) [nM]
CC(C)C[C@@H]1NC(=O)[C@H](Cc2c[nH]c3ccccc23)NC(=O)[C@H](CC(=O)O)NC(=O)[C@H](Cc2ccc(C(=O)O)cc2)NC(=O)[C@H](CC(N)=O)NC(=O)CSC[C@@H](C(=O)N[C@@H](C)C(N)=O)NC(=O)[C@H](CO)NC(=O)[C@H](C(C)C)NC(=O)[C@H](CC(C)C)NC(=O)[C@H](CC(N)=O)NC(=O)[C@H]2CCCN2C(=O)[C@H](C)N(C)C(=O)[C@H](C(C)C)NC(=O)[C@H](Cc2ccc(-c3ccccc3)cc2)NC1=O [Example 1059] ({CH2CO}-N[Phe(4-COOH)]DWL[Bip]V[NMeA][dP]NLVSCA-NH2; thioether N-14)	140	–
CCCC[C@@H]1NC(=O)[C@H](CC(N)=O)NC(=O)[C@H]2CCCN2C(=O)[C@H](C)N(C)C(=O)[C@H](C(C)C)NC(=O)[C@H](Cc2ccc(-c3ccccc3)cc2)NC(=O)[C@H](CC(C)C)NC(=O)[C@H](Cc2c[nH]c3ccccc23)NC(=O)[C@H](CC(=O)O)NC(=O)[C@H](Cc2ccc(O)cc2)NC(=O)[C@H](Cc2ccccc2)NC(=O)CSC[C@@H](C(=O)N[C@@H](C)C(N)=O)NC(=O)[C@H]([C@@H](C)O)NC(=O)[C@H](C(C)C)NC1=O [Example 1097] ({CH2CO}-FYDWL[Bip]V[NMeA][dP]N[Nle]VTCA-NH2; thioether N-14)	280	–
CC(C)C[C@@H]1NC(=O)[C@H](CCCNC(=N)N)NC(=O)[C@H](Cc2ccccc2)N(C)C(=O)[C@H](C)N(C)C(=O)[C@H](CCCNC(=N)N)NC(=O)[C@H](Cc2ccc(-c3ccccc3)cc2)NC(=O)[C@H](C(C)C)NC(=O)[C@H](Cc2c[nH]c3ccccc23)NC(=O)[C@H](CC(=O)O)NC(=O)[C@H](Cc2ccc(O)cc2)NC(=O)[C@H](Cc2ccccc2)NC(=O)CSC[C@@H](C(=O)NCC(N)=O)NC(=O)[C@H](CN)NC(=O)[C@H](C(C)C)NC1=O [Example 1330] ({CH2CO}-FYDWV[Bip]R[NMeA][NMeF]RLV[Dap]CG-NH2; thioether N-14)	390	–
CC(C)C1NC(=O)[C@H](Cc2c[nH]c3ccccc23)NC(=O)[C@H](CC(=O)O)NC(=O)[C@H](Cc2ccncc2)NC(=O)[C@H](Cc2ccc(OCC(=O)O)cc2)NC(=O)CSC[C@@H](C(=O)N[C@@H](C)C(N)=O)NC(=O)[C@H]([C@@H](C)O)NC(=O)[C@H](C(C)C)NC(=O)[C@H](CC2CCCCC2)NC(=O)[C@H](CCN)NC(=O)[C@H](Cc2ccc(O)cc2)N(C)C(=O)[C@H](CCCN)NC(=O)[C@H](CCC(=O)O)NC(=O)[C@H](Cc2ccc(-c3ccccc3)cc2)NC1=O (stereo partly drawn) [Example 1452] ({CH2CO}-Y(Carboxymethyl)[4Pal]DW[ξV][Bip]E[Orn][NMeY][Dab][Cha]VTCA-NH2; thioether N-14)	140	–
CC(C)C[C@@H]1NC(=O)[C@H](Cc2c[nH]c3ccccc23)NC(=O)[C@H](CC(=O)O)NC(=O)[C@H](Cc2cccnc2)NC(=O)[C@H](Cc2ccccc2)NC(=O)CSC[C@@H](C(=O)N[C@@H](C)C(N)=O)NC(=O)[C@H](CO)NC(=O)[C@H](C(C)C)NC(=O)[C@H](CC(C)C)NC(=O)[C@H](CC(N)=O)NC(=O)CN(C)C(=O)[C@H](C)N(C)C(=O)[C@H](C(C)C)NC(=O)[C@H](Cc2ccc(-c3ccccc3)cc2)NC1=O [Example 1080] ({CH2CO}-F[3Pal]DWL[Bip]V[NMeA][Sar]NLVSCA-NH2; thioether N-14)	230	–
CC[C@H](NC(=O)[C@@H]1CSCC(=O)N[C@@H](Cc2ccccc2)C(=O)N[C@@H](Cc2ccc(O)cc2)C(=O)N[C@@H](CC(=O)O)C(=O)N[C@@H](Cc2c[nH]c3ccccc23)C(=O)N[C@@H](C(C)C)C(=O)N[C@@H](Cc2ccc(-c3ccccc3)cc2)C(=O)N[C@@H](CCCNC(=N)N)C(=O)N(C)[C@@H](C)C(=O)N(C)[C@@H](Cc2ccccc2)C(=O)N[C@@H](CCCNC(=N)N)C(=O)N[C@@H](CC(C)C)C(=O)N[C@@H](C(C)C)C(=O)N[C@@H](CO)C(=O)N1)C(N)=O [Example 1337] ({CH2CO}-FYDWV[Bip]R[NMeA][NMeF]RLVSC[Abu]-NH2; thioether N-14)	870	–
CC(C)C[C@@H]1NC(=O)[C@H](CC(N)=O)NC(=O)[C@H](Cc2ccccc2)N(C)C(=O)[C@H](C)N(C)C(=O)[C@H](C(C)C)NC(=O)[C@H](Cc2ccc(-c3ccccc3)cc2)NC(=O)[C@H](C(C)C)NC(=O)[C@H](Cc2c[nH]c3ccccc23)NC(=O)[C@H](CC(=O)O)NC(=O)[C@H](Cc2ccc(O)cc2)NC(=O)[C@H](Cc2ccccc2)NC(=O)CSC[C@@H](C(=O)N[C@@H](C)C(N)=O)NC(=O)[C@H](CO)NC(=O)[C@H](C(C)C)NC1=O [Example 1112] ({CH2CO}-FYDWV[Bip]V[NMeA][NMeF]NLVSCA-NH2; thioether N-14)	370	–
CC(C)C[C@@H]1NC(=O)[C@H](Cc2c[nH]c3ccccc23)NC(=O)[C@H](CC(=O)O)NC(=O)[C@H](Cc2ccc(O)cc2)NC(=O)[C@H](Cc2ccccc2)NC(=O)CSC[C@@H](C(=O)NCC(N)=O)NC(=O)[C@H](CO)NC(=O)[C@H](C(C)C)NC(=O)[C@H](CC(C)C)NC(=O)[C@H](CC(N)=O)NC(=O)[C@H]2CCCN2C(=O)[C@H](CN)NC(=O)[C@H](C(C)C)NC(=O)[C@H](Cc2ccc(-c3ccccc3)cc2)NC1=O [Example 1406] ({CH2CO}-FYDWL[Bip]V[Dap][dP]NLVSCG-NH2; thioether N-14)	–	350
CC(C)C[C@@H]1NC(=O)[C@H](C(C)C)NC(=O)CN(C)C(=O)[C@H](C)N(C)C(=O)[C@H](C(C)C)NC(=O)[C@H](Cc2ccc(-c3ccccc3)cc2)NC(=O)[C@H](Cc2ccc(O)cc2)NC(=O)[C@H](Cc2c[nH]c3ccccc23)NC(=O)[C@H](CC(=O)O)NC(=O)[C@H](Cc2ccc(O)cc2)NC(=O)[C@H](Cc2ccccc2)NC(=O)CSC[C@@H](C(=O)NCC(N)=O)NC(=O)[C@H](CO)NC(=O)[C@H](C(C)C)NC1=O [Example 1235] ({CH2CO}-FYDWY[Bip]V[NMeA][Sar]VLVSCG-NH2; thioether N-14)	110	–
CC(C)C[C@@H]1NC(=O)[C@H](CCCNC(=N)N)NC(=O)[C@H](Cc2ccccc2)N(C)C(=O)[C@H](C)N(C)C(=O)[C@H](CCCNC(=N)N)NC(=O)[C@H](Cc2ccc(-c3ccccc3)cc2)NC(=O)[C@H](C(C)C)NC(=O)[C@H](Cc2c[nH]c3ccccc23)NC(=O)[C@H](CC(=O)O)NC(=O)[C@H](Cc2ccc(C(=O)O)cc2)NC(=O)[C@H](CCC(N)=O)NC(=O)CSC[C@@H](C(=O)NCC(N)=O)NC(=O)[C@H](CO)NC(=O)[C@H](C(C)C)NC1=O [Example 1297] ({CH2CO}-Q[Phe(4-COOH)]DWV[Bip]R[NMeA][NMeF]RLVSCG-NH2; thioether N-14)	420	–
CC(C)C[C@@H]1NC(=O)[C@H](Cc2c[nH]c3ccccc23)NC(=O)[C@H](CC(=O)O)NC(=O)[C@H](Cc2ccc(O)cc2)NC(=O)[C@H](Cc2ccccc2)NC(=O)CSC[C@@H](C(=O)NCC(N)=O)NC(=O)[C@H](CO)NC(=O)[C@H](C(C)C)NC(=O)[C@H](CC(C)C)NC(=O)[C@H](CCN)NC(=O)[C@H]2CCCN2C(=O)[C@H](CN)NC(=O)[C@H](C(C)C)NC(=O)[C@H](Cc2ccc(-c3ccccc3)cc2)NC1=O [Example 1410] ({CH2CO}-FYDWL[Bip]V[Dap][dP][Dab]LVSCG-NH2; thioether N-14)	140	–
CC(C)C[C@@H]1NC(=O)[C@H](CCCNC(=N)N)NC(=O)[C@H](Cc2ccccc2)N(C)C(=O)[C@H](C)N(C)C(=O)[C@H](CCCNC(=N)N)NC(=O)[C@H](Cc2ccc(-c3ccccc3)cc2)NC(=O)[C@H](C(C)C)NC(=O)[C@H](Cc2c[nH]c3ccccc23)NC(=O)[C@H](CC(=O)O)NC(=O)[C@H](Cc2ccc(O)cc2)NC(=O)[C@H](Cc2ccccc2)NC(=O)CSC[C@@H](C(=O)N[C@H](C(N)=O)C(C)C)NC(=O)[C@H](CO)NC(=O)[C@H](C(C)C)NC1=O [Example 1167] ({CH2CO}-FYDWV[Bip]R[NMeA][NMeF]RLVSCV-NH2; thioether N-14)	910	–
Cc1cccc(C[C@@H]2NC(=O)[C@H](CC(=O)O)NC(=O)[C@H](Cc3ccc(OCC(=O)O)cc3)NC(=O)[C@H](Cc3ccncc3)NC(=O)CSC[C@@H](C(=O)N[C@@H](CCN)C(N)=O)NC(=O)[C@H](CO)NC(=O)[C@H](C(C)(C)O)NC(=O)[C@H](CC3CCCCC3)NC(=O)[C@H](CCN)NC(=O)[C@H]3CCCN3C(=O)[C@H](C)N(C)C(=O)[C@H](C(C)C)NC(=O)[C@H](Cc3ccc(-c4ccccc4)cc3)NC(=O)[C@H](Cc3ccc(OCC(=O)O)cc3)NC2=O)c1 [Example 1184] ({CH2CO}-[4Pal]Y(Carboxymethyl)D[Phe(3-Me)]Y(Carboxymethyl)[Bip]V[NMeA][dP][Dab][Cha][Val(3-OH)]SC[Dab]-NH2; thioether N-14)	20	–
CC(C)C[C@@H]1NC(=O)[C@H](Cc2c[nH]c3ccccc23)NC(=O)[C@H](CC(=O)O)NC(=O)[C@H](Cc2ccc(OCC(=O)O)cc2)NC(=O)[C@H](Cc2ccccc2)NC(=O)CSC[C@@H](C(=O)NCC(N)=O)NC(=O)[C@H](CO)NC(=O)[C@H](C(C)C)NC(=O)[C@H](CC(C)C)NC(=O)[C@H](CC(N)=O)NC(=O)CN(C)C(=O)[C@H](C)N(C)C(=O)[C@H](C(C)C)NC(=O)[C@H](Cc2ccc(-c3ccccc3)cc2)NC1=O [Example 1030] ({CH2CO}-FY(Carboxymethyl)DWL[Bip]V[NMeA][Sar]NLVSCG-NH2; thioether N-14)	60	–
CC(C)C[C@@H]1NC(=O)[C@H](CCCNC(=N)N)NC(=O)C2CCCN2C(=O)[C@H](C)N(C)C(=O)[C@H](CCCNC(=N)N)NC(=O)[C@H](Cc2ccc(-c3ccccc3)cc2)NC(=O)[C@H](C(C)C)NC(=O)[C@H](Cc2c[nH]c3ccccc23)NC(=O)[C@H](CC(=O)O)NC(=O)[C@H](Cc2ccc(O)cc2)NC(=O)[C@H](Cc2ccccc2)NC(=O)CSC[C@@H](C(=O)NCC(N)=O)NC(=O)[C@H](CO)NC(=O)[C@H](C(C)C)NC1=O (stereo partly drawn) [Example 1282] ({CH2CO}-FYDWV[Bip]R[NMeA][ξP]RLVSCG-NH2; thioether N-14)	290	–
